Measurements published in the kinase profiling compilation of Christmann-Franck et al. (2016).
Values joined by “and” are separate entries in the source; they are usually repeats but may differ in a detail not shown here. Equal values may be shown once.

Experiments:
Assay in all cases: radiometric filter-binding kinase assay, Kinase HotSpot
Conditions in all cases: compound 0.5 µM; ATP 10 µM
ACVR1B (human) = ACVR1B (human) (UniProt P36896)
CAMK2G (human) = CAMK2G (human) (UniProt Q13555)
AURKB (human) = AURKB (human) (UniProt Q96GD4)
RPS6KA3 KD1 KD2 (human) = RPS6KA3 KD1 KD2 (human) (UniProt P51812)
GSG2 (human) = GSG2 (human) (UniProt Q8TF76)
MAPK11 (human) = MAPK11 (human) (UniProt Q15759)
ERBB4 (human) = ERBB4 (human) (UniProt Q15303)
DAPK2 (human) = DAPK2 (human) (UniProt Q9UIK4)
CLK4 (human) = CLK4 (human) (UniProt Q9HAZ1)
PLK3 (human) = PLK3 (human) (UniProt Q9H4B4)
PRKCH (human) = PRKCH (human) (UniProt P24723)
MELK (human) = MELK (human) (UniProt Q14680)
OXSR1 (human) = OXSR1 (human) (UniProt O95747)
JAK3 JH1 JH2 (human) = JAK3 JH1 JH2 (human) (UniProt P52333)
RIPK2 (human) = RIPK2 (human) (UniProt O43353)
PDGFRA (human) = PDGFRA (human) (UniProt P16234)
SYK (human) = SYK (human) (UniProt P43405)
MAP3K2 (human) = MAP3K2 (human) (UniProt Q9Y2U5)
TLK2 (human) = TLK2 (human) (UniProt Q86UE8)
MARK3 (human) = MARK3 (human) (UniProt P27448)
FER (human) = FER (human) (UniProt P16591)
EPHA6 (human) = EPHA6 (human) (UniProt Q9UF33)
MYO3B (human) = MYO3B (human) (UniProt Q8WXR4)
CLK2 (human) = CLK2 (human) (UniProt P49760)
CSNK1G2 (human) = CSNK1G2 (human) (UniProt P78368)
PRKCB2 (human) = PRKCB2 (human) (UniProt P05771)
ULK3 (human) = ULK3 (human) (UniProt Q6PHR2)
PLK2 (human) = PLK2 (human) (UniProt Q9NYY3)
PAK2 (human) = PAK2 (human) (UniProt Q13177)
NEK9 (human) = NEK9 (human) (UniProt Q8TD19)
BRAF (human) = BRAF (human) (UniProt P15056)
STK38 (human) = STK38 (human) (UniProt Q15208)
DMPK (human) = DMPK (human) (UniProt Q09013)
PRKACG (human) = PRKACG (human) (UniProt P22612)
CDK2 CCNA2 (human) = CDK2 CCNA2 (human) (UniProt P24941+P20248)
PRKG1 (human) = PRKG1 (human) (UniProt Q13976)
CAMK1D (human) = CAMK1D (human) (UniProt Q8IU85)
MAP3K14 (human) = MAP3K14 (human) (UniProt Q99558)
VRK1 (human) = VRK1 (human) (UniProt Q99986)
FGFR2 (human) = FGFR2 (human) (UniProt P21802)
FGFR3 (human) = FGFR3 (human) (UniProt P22607)

ULK3 (human), sequence (Q6PHR2 whole entry, looked up): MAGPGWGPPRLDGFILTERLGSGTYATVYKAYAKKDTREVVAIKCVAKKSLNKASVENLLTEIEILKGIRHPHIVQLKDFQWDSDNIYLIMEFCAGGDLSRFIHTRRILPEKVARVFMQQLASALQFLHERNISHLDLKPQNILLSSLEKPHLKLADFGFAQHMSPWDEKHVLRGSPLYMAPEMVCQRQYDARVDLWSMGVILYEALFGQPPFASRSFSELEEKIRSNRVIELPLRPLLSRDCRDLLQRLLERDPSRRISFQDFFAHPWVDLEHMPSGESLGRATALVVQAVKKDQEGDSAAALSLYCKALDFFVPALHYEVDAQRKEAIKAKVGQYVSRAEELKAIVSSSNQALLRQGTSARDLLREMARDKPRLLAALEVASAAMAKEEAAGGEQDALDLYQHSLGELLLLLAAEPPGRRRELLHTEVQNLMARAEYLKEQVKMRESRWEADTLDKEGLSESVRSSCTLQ
AURKB (human), sequence (Q96GD4 whole entry, looked up): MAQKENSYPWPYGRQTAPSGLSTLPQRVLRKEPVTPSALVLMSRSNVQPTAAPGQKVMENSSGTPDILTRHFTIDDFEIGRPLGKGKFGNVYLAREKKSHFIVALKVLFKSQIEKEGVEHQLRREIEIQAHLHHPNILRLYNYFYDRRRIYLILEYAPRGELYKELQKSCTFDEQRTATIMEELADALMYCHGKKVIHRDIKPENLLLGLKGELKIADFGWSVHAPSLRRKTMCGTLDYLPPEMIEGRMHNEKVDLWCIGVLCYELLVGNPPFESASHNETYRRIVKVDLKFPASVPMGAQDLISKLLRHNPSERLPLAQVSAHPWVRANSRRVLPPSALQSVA
CSNK1G2 (human), sequence (P78368 whole entry, looked up): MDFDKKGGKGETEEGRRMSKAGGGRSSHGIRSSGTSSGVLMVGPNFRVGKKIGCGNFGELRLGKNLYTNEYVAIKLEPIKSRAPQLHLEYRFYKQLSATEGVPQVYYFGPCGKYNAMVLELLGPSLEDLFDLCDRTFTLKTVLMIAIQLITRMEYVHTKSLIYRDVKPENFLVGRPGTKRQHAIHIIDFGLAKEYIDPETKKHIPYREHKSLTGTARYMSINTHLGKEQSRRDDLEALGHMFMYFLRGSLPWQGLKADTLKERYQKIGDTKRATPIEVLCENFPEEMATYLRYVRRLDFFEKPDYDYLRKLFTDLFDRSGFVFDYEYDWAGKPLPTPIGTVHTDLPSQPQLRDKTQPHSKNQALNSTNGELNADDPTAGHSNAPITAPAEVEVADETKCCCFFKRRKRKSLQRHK
STK38 (human), sequence (Q15208 whole entry, looked up): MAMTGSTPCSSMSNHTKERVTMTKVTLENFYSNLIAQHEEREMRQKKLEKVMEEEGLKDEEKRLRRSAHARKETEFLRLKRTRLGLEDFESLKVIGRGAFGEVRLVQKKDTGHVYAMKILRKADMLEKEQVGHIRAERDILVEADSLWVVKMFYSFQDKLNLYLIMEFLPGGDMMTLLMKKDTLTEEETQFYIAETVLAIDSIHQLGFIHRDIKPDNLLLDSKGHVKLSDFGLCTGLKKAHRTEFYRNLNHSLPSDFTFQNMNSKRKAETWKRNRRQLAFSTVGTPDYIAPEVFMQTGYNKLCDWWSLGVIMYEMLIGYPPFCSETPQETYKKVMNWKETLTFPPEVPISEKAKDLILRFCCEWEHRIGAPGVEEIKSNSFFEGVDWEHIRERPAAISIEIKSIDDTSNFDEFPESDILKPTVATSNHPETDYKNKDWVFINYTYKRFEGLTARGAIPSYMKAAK
ERBB4 (human), sequence (Q15303 whole entry, looked up): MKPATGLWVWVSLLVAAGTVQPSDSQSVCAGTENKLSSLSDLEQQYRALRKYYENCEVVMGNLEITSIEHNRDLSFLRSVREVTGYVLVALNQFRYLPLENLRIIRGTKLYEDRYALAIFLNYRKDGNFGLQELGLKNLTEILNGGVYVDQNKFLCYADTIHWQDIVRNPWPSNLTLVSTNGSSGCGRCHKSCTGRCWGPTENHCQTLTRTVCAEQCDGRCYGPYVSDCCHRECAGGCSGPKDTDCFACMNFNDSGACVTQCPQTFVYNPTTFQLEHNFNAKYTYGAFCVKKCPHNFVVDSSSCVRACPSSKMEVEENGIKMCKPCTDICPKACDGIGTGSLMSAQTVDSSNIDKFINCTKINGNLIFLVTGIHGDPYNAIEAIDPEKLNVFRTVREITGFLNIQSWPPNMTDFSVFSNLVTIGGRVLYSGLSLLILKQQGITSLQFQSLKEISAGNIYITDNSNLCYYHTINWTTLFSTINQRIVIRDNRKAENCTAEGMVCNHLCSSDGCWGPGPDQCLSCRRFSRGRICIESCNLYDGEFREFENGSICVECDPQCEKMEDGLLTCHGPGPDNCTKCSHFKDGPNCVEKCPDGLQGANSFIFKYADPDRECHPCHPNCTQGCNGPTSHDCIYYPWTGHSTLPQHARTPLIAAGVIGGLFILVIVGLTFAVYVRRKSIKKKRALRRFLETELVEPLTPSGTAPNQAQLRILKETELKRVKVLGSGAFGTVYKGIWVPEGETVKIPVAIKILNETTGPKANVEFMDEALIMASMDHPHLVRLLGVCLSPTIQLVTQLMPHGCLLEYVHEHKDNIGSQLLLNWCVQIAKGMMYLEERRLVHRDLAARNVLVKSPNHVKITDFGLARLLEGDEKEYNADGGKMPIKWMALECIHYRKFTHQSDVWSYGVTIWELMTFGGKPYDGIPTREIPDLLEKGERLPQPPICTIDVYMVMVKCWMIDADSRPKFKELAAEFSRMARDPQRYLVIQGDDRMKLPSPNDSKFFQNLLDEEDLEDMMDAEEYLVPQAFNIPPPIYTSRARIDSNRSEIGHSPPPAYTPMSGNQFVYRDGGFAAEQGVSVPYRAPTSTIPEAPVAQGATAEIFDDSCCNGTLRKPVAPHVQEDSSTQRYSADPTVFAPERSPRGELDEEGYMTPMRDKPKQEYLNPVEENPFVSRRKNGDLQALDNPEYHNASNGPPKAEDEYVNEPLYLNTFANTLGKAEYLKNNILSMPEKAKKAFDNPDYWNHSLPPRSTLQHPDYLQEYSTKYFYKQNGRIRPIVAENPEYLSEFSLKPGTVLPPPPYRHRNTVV
CAMK2G (human), sequence (Q13555 whole entry, looked up): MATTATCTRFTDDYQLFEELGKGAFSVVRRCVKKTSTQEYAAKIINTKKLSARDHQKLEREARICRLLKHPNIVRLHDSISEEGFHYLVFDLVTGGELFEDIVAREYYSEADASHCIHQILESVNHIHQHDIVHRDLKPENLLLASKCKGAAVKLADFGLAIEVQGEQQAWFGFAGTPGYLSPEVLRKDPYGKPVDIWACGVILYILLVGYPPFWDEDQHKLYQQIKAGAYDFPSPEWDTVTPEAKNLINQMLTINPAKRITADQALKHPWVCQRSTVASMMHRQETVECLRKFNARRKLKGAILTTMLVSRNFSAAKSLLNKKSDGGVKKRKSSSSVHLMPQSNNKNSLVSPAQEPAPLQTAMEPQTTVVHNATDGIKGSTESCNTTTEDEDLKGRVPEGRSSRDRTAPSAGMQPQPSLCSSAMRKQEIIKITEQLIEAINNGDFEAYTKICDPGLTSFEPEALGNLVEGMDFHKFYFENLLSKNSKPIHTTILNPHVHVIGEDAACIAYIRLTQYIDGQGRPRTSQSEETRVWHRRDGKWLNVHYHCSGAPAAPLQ
MARK3 (human), sequence (P27448 whole entry, looked up): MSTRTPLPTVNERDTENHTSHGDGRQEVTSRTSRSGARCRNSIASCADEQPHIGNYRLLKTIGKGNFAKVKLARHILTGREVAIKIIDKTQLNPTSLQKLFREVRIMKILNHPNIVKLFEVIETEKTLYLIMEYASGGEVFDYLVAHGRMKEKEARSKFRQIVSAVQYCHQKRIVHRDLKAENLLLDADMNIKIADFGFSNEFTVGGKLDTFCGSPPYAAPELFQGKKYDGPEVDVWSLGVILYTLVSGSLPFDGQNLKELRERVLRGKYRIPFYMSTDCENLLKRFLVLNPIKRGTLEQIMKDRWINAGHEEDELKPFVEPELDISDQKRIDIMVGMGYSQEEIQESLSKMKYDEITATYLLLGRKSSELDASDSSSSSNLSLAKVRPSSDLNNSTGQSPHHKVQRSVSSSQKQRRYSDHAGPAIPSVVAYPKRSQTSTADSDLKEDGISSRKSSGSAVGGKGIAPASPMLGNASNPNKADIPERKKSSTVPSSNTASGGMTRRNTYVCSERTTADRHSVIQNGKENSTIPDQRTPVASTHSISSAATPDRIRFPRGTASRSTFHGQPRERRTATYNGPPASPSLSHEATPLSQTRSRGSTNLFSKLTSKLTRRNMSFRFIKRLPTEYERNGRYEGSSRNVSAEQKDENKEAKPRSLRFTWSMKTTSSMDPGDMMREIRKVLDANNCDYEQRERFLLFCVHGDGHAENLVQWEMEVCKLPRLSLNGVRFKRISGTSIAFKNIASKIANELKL
PRKG1 (human), sequence (Q13976 whole entry, looked up): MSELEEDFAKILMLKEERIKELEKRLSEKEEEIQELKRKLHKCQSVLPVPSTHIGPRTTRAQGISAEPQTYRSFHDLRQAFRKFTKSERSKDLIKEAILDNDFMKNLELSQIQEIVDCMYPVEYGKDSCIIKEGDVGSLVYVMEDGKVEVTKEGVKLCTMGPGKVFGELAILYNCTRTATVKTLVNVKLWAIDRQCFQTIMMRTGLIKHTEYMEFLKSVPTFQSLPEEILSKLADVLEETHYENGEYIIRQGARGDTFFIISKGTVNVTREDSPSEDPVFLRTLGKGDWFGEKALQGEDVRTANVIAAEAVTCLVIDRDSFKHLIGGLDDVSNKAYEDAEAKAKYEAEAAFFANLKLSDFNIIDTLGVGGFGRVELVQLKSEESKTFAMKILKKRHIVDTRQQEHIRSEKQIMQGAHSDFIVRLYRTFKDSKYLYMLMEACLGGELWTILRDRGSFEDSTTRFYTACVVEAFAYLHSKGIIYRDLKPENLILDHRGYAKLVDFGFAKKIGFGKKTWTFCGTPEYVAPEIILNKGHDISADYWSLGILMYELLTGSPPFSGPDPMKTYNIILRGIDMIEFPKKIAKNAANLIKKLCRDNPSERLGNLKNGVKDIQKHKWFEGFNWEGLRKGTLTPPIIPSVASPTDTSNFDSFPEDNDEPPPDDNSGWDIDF

O=C(CCCc1ccc(-c2ccccc2F)cc1)Nc1ccc(O)cc1
residual activity (ACVR1B (human)): 95.9% | residual activity (CAMK2G (human)): 109% | residual activity (AURKB (human)): 106% | residual activity (RPS6KA3 KD1 KD2 (human)): 95.8% | residual activity (GSG2 (human)): 94.7% | residual activity (MAPK11 (human)): 79.7% | residual activity (ERBB4 (human)): 107% | residual activity (DAPK2 (human)): 106% | residual activity (CLK4 (human)): 103% | residual activity (PLK3 (human)): 95% | residual activity (PRKCH (human)): 84% | residual activity (MELK (human)): 95.5% | residual activity (OXSR1 (human)): 102% | residual activity (JAK3 JH1 JH2 (human)): 92.1% | residual activity (RIPK2 (human)): 84.5% | residual activity (PDGFRA (human)): 96.5% | residual activity (SYK (human)): 101% | residual activity (MAP3K2 (human)): 89.1% | residual activity (TLK2 (human)): 84.1% | residual activity (MARK3 (human)): 101% | residual activity (FER (human)): 103% | residual activity (EPHA6 (human)): 89.6% | residual activity (MYO3B (human)): 96.3% | residual activity (CLK2 (human)): 103% | residual activity (CSNK1G2 (human)): 99.4% | residual activity (PRKCB2 (human)): 102% | residual activity (ULK3 (human)): 103% | residual activity (PLK2 (human)): 102% | residual activity (PAK2 (human)): 101% | residual activity (NEK9 (human)): 92.7% | residual activity (BRAF (human)): 93% | residual activity (STK38 (human)): 109% | residual activity (DMPK (human)): 130% | residual activity (PRKACG (human)): 93.5% | residual activity (CDK2 CCNA2 (human)): 92.7% | residual activity (PRKG1 (human)): 95.5% and 99.9% | residual activity (CAMK1D (human)): 122% | residual activity (MAP3K14 (human)): 99.2% | residual activity (VRK1 (human)): 95.5% | residual activity (FGFR2 (human)): 102% | residual activity (FGFR3 (human)): 103%

COc1cc2ncnc(N3CCN(C(=O)Nc4ccc(Oc5ccccc5)cc4)CC3)c2cc1OC
residual activity (ACVR1B (human)): 94.7% | residual activity (CAMK2G (human)): 100% | residual activity (AURKB (human)): 76.1% | residual activity (RPS6KA3 KD1 KD2 (human)): 115% | residual activity (GSG2 (human)): 93.2% | residual activity (MAPK11 (human)): 99.6% | residual activity (ERBB4 (human)): 101% | residual activity (DAPK2 (human)): 95% | residual activity (CLK4 (human)): 65.6% | residual activity (PLK3 (human)): 91.8% | residual activity (PRKCH (human)): 86.1% | residual activity (MELK (human)): 94.9% | residual activity (OXSR1 (human)): 119% | residual activity (JAK3 JH1 JH2 (human)): 107% | residual activity (RIPK2 (human)): 93.7% | residual activity (PDGFRA (human)): 16.4% | residual activity (SYK (human)): 93.2% | residual activity (MAP3K2 (human)): 81.2% | residual activity (TLK2 (human)): 94.7% | residual activity (MARK3 (human)): 80.4% | residual activity (FER (human)): 99.8% | residual activity (EPHA6 (human)): 89.6% | residual activity (MYO3B (human)): 95.4% | residual activity (CLK2 (human)): 81.3% | residual activity (CSNK1G2 (human)): 94.6% | residual activity (PRKCB2 (human)): 102% | residual activity (ULK3 (human)): 100% | residual activity (PLK2 (human)): 105% | residual activity (PAK2 (human)): 104% | residual activity (NEK9 (human)): 103% | residual activity (BRAF (human)): 92.6% | residual activity (STK38 (human)): 96.9% | residual activity (DMPK (human)): 95.6% | residual activity (PRKACG (human)): 103% | residual activity (CDK2 CCNA2 (human)): 93.1% | residual activity (PRKG1 (human)): 85.6% and 98.7% | residual activity (CAMK1D (human)): 104% | residual activity (MAP3K14 (human)): 105% | residual activity (VRK1 (human)): 77.4% | residual activity (FGFR2 (human)): 92.4% | residual activity (FGFR3 (human)): 99.9%

Nc1nccc(-c2c(-c3ccc(F)cc3)ncn2C2CCNCC2)n1
residual activity (ACVR1B (human)): 121% | residual activity (CAMK2G (human)): 93% | residual activity (AURKB (human)): 103% | residual activity (RPS6KA3 KD1 KD2 (human)): 92.2% | residual activity (GSG2 (human)): 91.4% | residual activity (ERBB4 (human)): 86.8% | residual activity (DAPK2 (human)): 94.1% | residual activity (CLK4 (human)): 96.9% | residual activity (PLK3 (human)): 97.8% | residual activity (PRKCH (human)): 91.9% | residual activity (MELK (human)): 100% | residual activity (OXSR1 (human)): 101% | residual activity (JAK3 JH1 JH2 (human)): 96.9% | residual activity (RIPK2 (human)): 77.2% | residual activity (PDGFRA (human)): 95.8% | residual activity (SYK (human)): 98% | residual activity (MAP3K2 (human)): 94% | residual activity (TLK2 (human)): 95.1% | residual activity (MARK3 (human)): 103% | residual activity (FER (human)): 98.3% | residual activity (EPHA6 (human)): 78% | residual activity (MYO3B (human)): 97.9% | residual activity (CLK2 (human)): 99.7% | residual activity (CSNK1G2 (human)): 119% | residual activity (PRKCB2 (human)): 79.4% | residual activity (ULK3 (human)): 95.5% | residual activity (PLK2 (human)): 93% | residual activity (PAK2 (human)): 76.9% | residual activity (NEK9 (human)): 100% | residual activity (BRAF (human)): 103% | residual activity (STK38 (human)): 99.8% | residual activity (DMPK (human)): 99.3% | residual activity (PRKACG (human)): 105% | residual activity (CDK2 CCNA2 (human)): 100% | residual activity (PRKG1 (human)): 88.2% and 97.7% | residual activity (CAMK1D (human)): 103% | residual activity (MAP3K14 (human)): 107% | residual activity (VRK1 (human)): 83.4% | residual activity (FGFR2 (human)): 104% | residual activity (FGFR3 (human)): 100%
